Assay results: US20160228434A1, “TREATMENT OF DISEASES CAUSED BY ABNORMAL LYMPHOCYTE FUNCTION WITH AN HDAC6 INHIBITOR” (priority 2013, published 2016)
“Also recorded” adds a separate entry of the source.

Legend:
[1] = tested on: thymic T cells; assay: Thymic T cell development by flow cytometry in treated NZB/W mice; assay type: in vivo; conditions: 16 weeks of treatment
Protocol: (§1) NZB/W mice were injected intraperitoneally 5 days/week with the vehicle control (DMSO), ACY-738 treatment at 5 mg/kg (low-dose), or ACY-738 treatment at 20 mg/kg (high-dose) beginning at 22-weeks-of-age until euthanization at 38 weeks-of-age. ACY-738 was received from Acetylon Pharmaceuticals for use in all studies. Proteinuria and weight were measured every 2 weeks and blood was collected every four weeks for sera analysis. Proteinuria was measured by a standard semi-quantitative test using Siemens Uristix dipsticks (Siemens Healthcare, Deerfield, Ill., USA). Results were quantified according to the manufacturer's instructions and scored as follows: dipstick reading of 0 mg/dL=0, trace=1, 30-100 mg/dL=2, 100-300 mg/dL=3, 300-2000 mg/dL=4, and 2000+ mg/dL=5.
A single-cell suspension was obtained from the thymuses and spleens of treated NZB/W mice at 38 weeks-of-age. Briefly, the thymus was removed from each NZB/W mouse and dissociated across a sterile wire mesh in a petri dish containing ice-cold RPMI 1640 medium (Thermo Scientific). RBCs were lysed using RBC lysis buffer and cells were pelleted and washed with PBS. Splenocytes were stained with APC-conjugated CD3, FITC-conjugated CD4, eFluor450 (eF450)-conjugated CD8a, PerCP-CY5.5-conjugated CD25, and PE-conjugated Foxp3. Thymocytes were stained with APC-CD3, FITC-CD4, and PE-CD8 anti-mouse mAbs (eBioscience, San Diego, Calif., USA). Fluorescence was measured using a FACScan flow cytometer and data was analyzed by FlowJo software.
FIG. 4A depicts representative flow cytometry images of thymocytes gated on CD3 and labeled with CD4 and CD8.

[2] = tested on: glomerular IL-6, IL-10 and TGF-β mRNA; assay: Glomerular IL-6, IL-10 and TGF-β mRNA by real-time RT-PCR in treated NZB/W mice; assay type: in vivo; conditions: 38-week-old NZB/W mice
Protocol: as §1
RNA was isolated using the mirVana miRNA isolation kit according to the manufacturer's protocol (Applied Biosystems, Carlsbad, Calif., USA). The eluates were quantified on a spectrophotometer (Nanodrop, Thermo Scientific, Waltham, Mass., USA). An aliquot was taken and diluted to 1 ng/μL for real-time RT-PCR. The eluted RNA was stored at −80° C.
IL-6, IL-10 and TGF-β mRNA expression were measured using TaqMan Gene Expression assays (Applied Biosystems, Carlsbad, Calif., USA). The […] using the endogenous control GAPDH, and then the ΔCT was determined by calculating the fold change in expression between the NZB/W mice treated with ACY-738 and the DMSO-treated controls. All samples were run in triplicate.
The cortical tissue was isolated from one kidney of each mouse and pooled by treatment group. Briefly, cortical tissue was pressed through grading sieves and resuspended in 750 U/mL Worthington type I collagenase at 37° C. for 20 min. Glomerular cells were pelleted, resuspended in RNAlater (QIAGEN, Valencia, Calif., USA), and stored at −20° C. until RNA isolation.
Following euthanization, glomeruli were isolated from the kidneys and RNA was extracted. Relative glomerular mRNA expression of IL-10, TGF-β, and IL-6 were determined using real-time RT-PCR.

[3] = 5 mg/kg, vs DMSO-treated controls

SMILES: O=C(NO)c1cnc(NC2(c3ccccc3)CC2)nc1 [ACY-738]
- percentage of DN (CD3+CD4-CD8-) thymic T cells ([1]; NZB/W mice at 38 weeks-of-age, 5 and 20 mg/kg): decreased the percentage of DN T cells in a dose-dependent manner; also recorded: reduced
- percentage of CD3+CD4+CD8- single positive thymic T cells ([1]; NZB/W mice at 38 weeks-of-age): substantial decrease
- percentage of CD3+CD4-CD8+ single positive thymic T cells ([1]; NZB/W mice at 38 weeks-of-age): substantial decrease
- double positive (CD3+CD4+CD8+) thymic T cell numbers ([1]; NZB/W mice, 5 and 20 mg/kg): increased in a dose-dependent manner
- reduction of glomerular IL-6 mRNA level [2, 3]: more than 50%
- reduction of glomerular IL-10 mRNA level [2, 3]: more than 50%
- glomerular IL-6 mRNA level ([2]; 20 mg/kg): non-detectable levels
- glomerular IL-10 mRNA level ([2]; 20 mg/kg): non-detectable levels
- glomerular TGF-β mRNA ([2]; 5 and 20 mg/kg, dose-dependent): decreased
